# pIC50: −log10 of the molar value.
# Biological target: T1, mouse c-fms (Mus musculus, UniProt P09581)
# T1 construct: Macrophage-like cell line BAC-1.2F5 which expresses c-fms as a M-CSF receptor on cell membranes; endogenous in cells; host or cells: BAC-1.2F5 mouse macrophage-like cell line
# T1 sequence (P09581 20-977): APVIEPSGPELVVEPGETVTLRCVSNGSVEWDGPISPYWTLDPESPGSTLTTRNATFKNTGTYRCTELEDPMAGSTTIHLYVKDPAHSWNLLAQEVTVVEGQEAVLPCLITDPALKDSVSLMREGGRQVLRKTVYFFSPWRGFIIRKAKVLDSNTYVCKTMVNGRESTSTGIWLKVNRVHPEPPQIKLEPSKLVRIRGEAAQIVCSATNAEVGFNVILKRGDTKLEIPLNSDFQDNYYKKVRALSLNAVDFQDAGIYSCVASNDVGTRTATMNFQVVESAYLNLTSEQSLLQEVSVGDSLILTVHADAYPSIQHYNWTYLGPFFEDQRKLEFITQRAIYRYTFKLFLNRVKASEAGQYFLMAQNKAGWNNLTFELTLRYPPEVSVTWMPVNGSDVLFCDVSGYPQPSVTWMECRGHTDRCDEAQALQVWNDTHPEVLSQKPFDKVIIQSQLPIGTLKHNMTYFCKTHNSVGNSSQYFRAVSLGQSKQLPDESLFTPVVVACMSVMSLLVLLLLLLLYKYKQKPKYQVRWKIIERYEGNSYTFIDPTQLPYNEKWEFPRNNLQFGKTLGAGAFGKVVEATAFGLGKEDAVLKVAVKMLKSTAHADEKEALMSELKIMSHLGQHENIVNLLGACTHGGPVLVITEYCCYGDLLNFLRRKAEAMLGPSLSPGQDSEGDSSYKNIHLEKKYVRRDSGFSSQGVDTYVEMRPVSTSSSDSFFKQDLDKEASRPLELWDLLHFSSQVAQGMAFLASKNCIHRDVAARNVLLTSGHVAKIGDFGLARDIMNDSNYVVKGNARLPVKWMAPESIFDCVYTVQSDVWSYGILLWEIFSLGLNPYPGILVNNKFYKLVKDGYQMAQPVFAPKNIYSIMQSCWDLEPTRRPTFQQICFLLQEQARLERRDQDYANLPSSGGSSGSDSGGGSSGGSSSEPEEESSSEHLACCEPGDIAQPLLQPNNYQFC
# Assay: Inhibition of c-fms autophosphorylation in macrophage-like cell line BAC-1.2F5 by M-CSF stimulation (ELISA)
# Assay type: cell-based
# Settings: BAC-1.2F5 cells, human recombinant M-CSF 50 ng/ml, read-out: c-fms autophosphorylation 50% inhibitory concentration (IC50)
# Outline: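 BAC-1.2F5 cells serum-starved (0.1% FCS) 12 h, preincubated with compound 1 h at 37° C, then stimulated 6 min with 50 ng/ml human recombinant M-CSF. Lysates captured on anti-phosphotyrosine plates, detected with anti-c-fms antiserum and peroxidase read-out at 450 nm. IC50 from inhibition normalised between ±M-CSF controls.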
row,pIC50,SMILES
1,8.16,"COc1cc2nccc(Oc3ccc(NC(=O)N[C@H](C)c4nccs4)cc3)c2cc1OC [Example 79, N-{4-[(6,7-Dimethoxy-4-quinolyl)oxy]phenyl}-N′-[(1R)-1-(1,3-thiazol-2-yl)ethyl]urea]"
2,8.21,"COc1cc2nccc(Oc3ccc(NC(=O)NC(C)c4nccs4)cc3OC)c2cc1OC (stereo not shown) [Example 80, N-{4-[(6,7-Dimethoxy-4-quinolyl)oxy]-3-methoxyphenyl}-N′-[1-(1,3-thiazol-2-yl)ethyl]urea]"
3,8.21,"COc1cc2nccc(Oc3ccc(NC(=O)N[C@@H](C)c4nccs4)cc3OC)c2cc1OC [Example 81, N-{4-[(6,7-Dimethoxy-4-quinolyl)oxy]-3-methoxyphenyl}-N′-[(1S)-1-(1,3-thiazol-2-yl)ethyl]urea]"
4,8.05,"COc1cc2nccc(Oc3ccc(NC(=O)N[C@H](C)c4nccs4)cc3OC)c2cc1OC [Example 82, N-{4-[(6,7-Dimethoxy-4-quinolyl)oxy]-3-methoxyphenyl}-N′-[(1R)-1-(1,3-thiazol-2-yl)ethyl]urea]"
5,7.99,"COc1cc2nccc(Oc3ccc(NC(=O)NC(C)c4nccs4)c(C(F)(F)F)c3)c2cc1OC (stereo not shown) [Example 83, N-[4-[(6,7-Dimethoxy-4-quinolyl)oxy]-2-(trifluoromethyl)phenyl]-N′-[1-(1,3-thiazol-2-yl)ethyl]urea]"
6,7.99,"COc1cc2nccc(Oc3ccc(NC(=O)N[C@@H](C)c4nccs4)c(C(F)(F)F)c3)c2cc1OC [Example 84, N-[4-[(6,7-Dimethoxy-4-quinolyl)oxy]-2-(trifluoromethyl)phenyl]-N′-[(1S)-1-(1,3-thiazol-2-yl)ethyl]urea]"
7,7.76,"COc1cc2nccc(Oc3ccc(NC(=O)N[C@H](C)c4nccs4)c(C(F)(F)F)c3)c2cc1OC [Example 85, N-[4-[(6,7-Dimethoxy-4-quinolyl)oxy]-2-(trifluoromethyl)phenyl]-N′-[(1R)-1-(1,3-thiazol-2-yl)ethyl]urea]"
8,7.90,"COc1cc2nccc(Oc3cc(C)c(NC(=O)N[C@@H](C)c4nccs4)cc3C)c2cc1OC [Example 86, N-{4-[(6,7-Dimethoxy-4-quinolyl)oxy]-2,5-dimethylphenyl}-N′-[(1S)-1-(1,3-thiazol-2-yl)ethyl]urea]"
9,7.58,"COc1cc2nccc(Oc3cc(C)c(NC(=O)N[C@H](C)c4nccs4)cc3C)c2cc1OC [Example 87, N-{4-[(6,7-Dimethoxy-4-quinolyl)oxy]-2,5-dimethylphenyl}-N′-[(1R)-1-(1,3-thiazol-2-yl)ethyl]urea]"
10,8.54,"COc1cc2nccc(Oc3ccc(NC(=O)NC(C)c4nc(C)cs4)c(F)c3)c2cc1OC (stereo not shown) [Example 88, N-{4-[(6,7-Dimethoxy-4-quinolyl)oxy]-2-fluorophenyl}-N′-[1-(4-methyl-1,3-thiazol-2-yl)ethyl]urea]"
11,8.51,"COc1cc2nccc(Oc3ccc(NC(=O)NC(C)c4nc(C)cs4)cc3F)c2cc1OC (stereo not shown) [Example 89, N-{4-[(6,7-Dimethoxy-4-quinolyl)oxy]-3-fluorophenyl}-N′-[1-(4-methyl-1,3-thiazol-2-yl)ethyl]urea]"
12,8.44,"COc1cc(Oc2ccnc3cc(OC)c(OC)cc23)ccc1NC(=O)NC(C)c1nc(C)cs1 (stereo not shown) [Example 90, N-{4-[(6,7-Dimethoxy-4-quinolyl)oxy]-2-methoxyphenyl}-N′-[1-(4-methyl-1,3-thiazol-2-yl)ethyl]urea]"
13,8.49,"COc1cc2nccc(Oc3ccc(NC(=O)NC(C)c4nc(C)cs4)cc3)c2cc1OC (stereo not shown) [Example 91, N-{4-[(6,7-Dimethoxy-4-quinolyl)oxy]phenyl}-N′-[1-(4-methyl-1,3-thiazol-2-yl)ethyl]urea]"
14,8.08,"COc1cc2nccc(Oc3ccc(NC(=O)NC(C)c4nc(C)cs4)c(C(F)(F)F)c3)c2cc1OC (stereo not shown) [Example 92, N-[4-[(6,7-Dimethoxy-4-quinolyl)oxy]-2-(trifluoromethyl)phenyl]-N′-[1-(4-methyl-1,3-thiazol-2-yl)ethyl]urea]"
15,7.41,"COc1cc2nccc(Oc3cc(C)c(NC(=O)NC(C)c4nc(C)cs4)cc3C)c2cc1OC (stereo not shown) [Example 93, N-{4-[(6,7-Dimethoxy-4-quinolyl)oxy]-2,5-dimethylphenyl}-N′-[1-(4-methyl-1,3-thiazol-2-yl)ethyl]urea]"
16,7.90,"COc1cc(Oc2ccnc3cc(OC)c(OC)cc23)ccc1NC(=O)NC(C)c1nc(C)c(C)s1 (stereo not shown) [Example 99, N-{4-[(6,7-Dimethoxy-4-quinolyl)oxy]-2-methoxyphenyl}-N′-[1-(4,5-dimethyl-1,3-thiazol-2-yl)ethyl]urea]"
17,7.80,"COc1cc2nccc(Oc3ccc(NC(=O)NC(C)c4ncc(C)s4)cc3)c2cc1OC (stereo not shown) [Example 100, N-{4-[(6,7-Dimethoxy-4-quinolyl)oxy]phenyl}-N′-[1-(5-methyl-1,3-thiazol-2-yl)ethyl]urea]"
18,7.70,"COc1cc2nccc(Oc3ccc(NC(=O)NC(C)c4ncc(C)s4)c(F)c3)c2cc1OC (stereo not shown) [Example 101, N-{4-[(6,7-Dimethoxy-4-quinolyl)oxy]-2-fluorophenyl}-N′-[1-(5-methyl-1,3-thiazol-2-yl)ethyl]urea]"
19,7.69,"COc1cc2nccc(Oc3ccc(NC(=O)NC(C)c4ncc(C)s4)cc3F)c2cc1OC (stereo not shown) [Example 102, N-{4-[(6,7-Dimethoxy-4-quinolyl)oxy]-3-fluorophenyl}-N′-[1-(5-methyl-1,3-thiazol-2-yl)ethyl]urea]"
20,7.16,"COc1cc2nccc(Oc3ccc(NC(=O)NC(C)c4ncc(C)s4)c(C)c3)c2cc1OC (stereo not shown) [Example 103, N-{4-[(6,7-Dimethoxy-4-quinolyl)oxy]-2-methylphenyl}-N′-[1-(5-methyl-1,3-thiazol-2-yl)ethyl]urea]"
21,7.66,"COc1cc2nccc(Oc3ccc(NC(=O)NC(C)c4ncc(C)s4)c(C(F)(F)F)c3)c2cc1OC (stereo not shown) [Example 104, N-[4-[(6,7-Dimethoxy-4-quinolyl)oxy]-2-(trifluoromethyl)phenyl]-N′-[1-(5-methyl-1,3-thiazol-2-yl)ethyl]urea]"
22,7.90,"COc1cc(Oc2ccnc3cc(OC)c(OC)cc23)ccc1NC(=O)NC(C)c1ncc(C)s1 (stereo not shown) [Example 105, N-{4-[(6,7-Dimethoxy-4-quinolyl)oxy]-2-methoxyphenyl}-N′-[1-(5-methyl-1,3-thiazol-2-yl)ethyl]urea]"
